Experiment [1] addresses T1, RIPK1 (Homo sapiens, UniProt Q13546).
T1 sequence (Q13546 1-671): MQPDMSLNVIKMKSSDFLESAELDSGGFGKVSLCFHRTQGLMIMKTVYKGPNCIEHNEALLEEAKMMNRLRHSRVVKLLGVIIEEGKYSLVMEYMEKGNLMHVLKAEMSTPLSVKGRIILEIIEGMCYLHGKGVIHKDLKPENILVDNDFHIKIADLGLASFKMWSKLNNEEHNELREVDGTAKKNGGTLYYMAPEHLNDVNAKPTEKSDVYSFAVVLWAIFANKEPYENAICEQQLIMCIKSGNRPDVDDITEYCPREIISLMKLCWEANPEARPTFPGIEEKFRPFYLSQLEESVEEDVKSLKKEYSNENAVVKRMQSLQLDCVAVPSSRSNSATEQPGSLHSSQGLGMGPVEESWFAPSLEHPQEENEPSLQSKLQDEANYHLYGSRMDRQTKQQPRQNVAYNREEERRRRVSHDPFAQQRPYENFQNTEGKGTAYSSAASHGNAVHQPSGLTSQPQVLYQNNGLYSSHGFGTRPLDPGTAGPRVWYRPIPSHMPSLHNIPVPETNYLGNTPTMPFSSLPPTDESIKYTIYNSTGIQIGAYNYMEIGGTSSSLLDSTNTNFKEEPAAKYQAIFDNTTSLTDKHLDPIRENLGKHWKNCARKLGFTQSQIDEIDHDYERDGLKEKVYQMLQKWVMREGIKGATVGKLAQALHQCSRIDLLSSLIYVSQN
Briefly: RIPK1 ADP-Glo biochemical kinase assay. The following applies: 30 min at 30° C. The protocol:
The final reaction volume was 5.0 μl.
Adding 5 μl of ADP-Glo™ terminated the reaction.

Experiment [2] has as its target T2, murine RIP1 (Mus musculus, UniProt Q60855).
T2 construct: U937 and L929 cells were obtained from the American Type Culture Collection; host or cells: L929
T2 sequence (Q60855 1-656): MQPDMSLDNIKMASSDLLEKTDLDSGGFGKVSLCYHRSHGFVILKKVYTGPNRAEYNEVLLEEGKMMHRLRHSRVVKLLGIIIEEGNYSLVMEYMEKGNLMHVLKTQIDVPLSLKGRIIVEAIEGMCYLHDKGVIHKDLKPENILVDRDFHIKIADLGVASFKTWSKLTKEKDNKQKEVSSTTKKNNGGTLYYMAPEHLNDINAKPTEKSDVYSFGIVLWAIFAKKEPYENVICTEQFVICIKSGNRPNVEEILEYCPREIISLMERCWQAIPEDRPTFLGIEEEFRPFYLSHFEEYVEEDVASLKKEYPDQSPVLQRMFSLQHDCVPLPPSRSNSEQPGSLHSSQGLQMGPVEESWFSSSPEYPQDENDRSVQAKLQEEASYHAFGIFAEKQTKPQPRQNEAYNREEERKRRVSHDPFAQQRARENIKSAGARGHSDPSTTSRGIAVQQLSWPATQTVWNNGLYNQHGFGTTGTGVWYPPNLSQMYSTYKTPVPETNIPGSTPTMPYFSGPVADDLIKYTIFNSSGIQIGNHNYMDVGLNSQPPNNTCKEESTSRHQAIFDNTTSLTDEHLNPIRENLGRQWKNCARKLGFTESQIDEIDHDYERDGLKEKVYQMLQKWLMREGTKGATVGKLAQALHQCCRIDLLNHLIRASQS
Briefly: L929 cell necroptosis assay (TNFa + zVAD, CellTiter-Glo). Type of experiment: cell-based. As to the method: (§1) In this example, U937 and L929 cells were exposed to compounds of the present disclosure and a cell necroptosis assay was conducted to evaluate the compounds' activity against human RIP1 and murine RIP1.
(§2) U937 and L929 cells were obtained from the American Type Culture Collection (Manassa, Va., USA). Both cells were maintained in logarithmic growth phase in complete RPMI 1640 media (Sigma, ST Louis, Mo., USA) supplemented with 10% fetal bovine serum (Sigma, ST Louis, Mo., USA) at 37° C. with 5% CO2. For necroptosis assay, L929 cells were plated for 18 h in 100 µL/well medium at 10K cells/well in Costar 96-well black clear-bottom plates (Fisher Scientific, Hampton, N.H., USA); U937 cells were plated on the day of the assay in 50 µL/well medium containing 60 uM zVAD-fmk (Lonza, Basel, Switzerland) at 50K cells/well. Medium from L929 cells were removed from the 96-well plates and replaced with 50 µL/well new medium containing 40 uM zVAD-fmk. Each compound of the present disclosure evaluated in this example was serially diluted in DMSO from 2.5 mM in 4-fold dilutions, and then diluted 1:125 in complete medium. 50 µL/well 2× of the compound was then added to the cells in the plates. The cells were pre-incubated with the compound for 1 hour at 37° C. with 5% CO2 and before addition of 10 µL/well 11×TNFa (Peprotech, Rocky Hill, N.J., USA) to give a final concentration of 2 ng/mL for TNFa. The relative amount of necroptosis cells was determined by luminescent using a Wallac Victor2 Luminometer (PerkinElmer, Waltham, Mass., USA) and a CellTiter-Glo® Luminescent Cell Viability Reagent Assay (Promega, Madison, Wis., USA) added per manufacturer instructions after 18 hours of TNFa stimulation at 37° C. with 5% CO2.Results from this example are summarized in Table 2. This example establishes that embodiments of the compounds described herein have unexpectedly potent activity against human RIP1 and murine RIP1, which allows their assessment in in vivo mouse models of disease.

In experiment [3] the target is T3, human RIP1 (Homo sapiens, UniProt Q13546).
T3 construct: U937 and L929 cells were obtained from the American Type Culture Collection; host or cells: U937
T3 sequence (Q13546 1-671): T1 sequence (Q13546 1-671)
Briefly: U937 cell necroptosis assay (TNFa + zVAD, CellTiter-Glo). The class given is cell-based. The following applies: U937 Zvad TNF CTG Recovery, U937 cells, TNFa 2 ng/mL + zVAD-fmk, 18 hours. As to the method: as §1, §2
Background: ATP-based viability assays read luminescence as a measure of living cells.

Turning to `[2H]C([2H])([2H])N1C(=O)C(NC(=O)c2cc(Oc3ccccc3)ccn2)CCc2ccc(N3CC4(CCOCC4)C3)cc21` (racemic) [Compound I-29, (±)-N-(1-(Methyl-d3)-2-oxo-8-(7-oxa-2-azaspiro[3.5]nonan-2-yl)-2,3,4,5-tetrahydro-1H-benzo[b]azepin-3-yl)-4-phenoxypicolinamide], the IC50 came to 41.3 nM in experiment [1], 1420 nM in experiment [2] and 6.3 nM in experiment [3].

For `CN1C(=O)C(NC(=O)c2cc(Oc3ccccc3)ccn2)CCc2ccc(N3CC4(CCCCC4)C3)cc21` (racemic) [Compound I-30, (±)-N-(1-Methyl-2-oxo-8-(2-azaspiro[3.5]nonan-2-yl)-2,3,4,5-tetrahydro-1H-benzo[b]azepin-3-yl)-4-phenoxypicolinamide], the IC50 in experiment [1] amounted to 603 nM; in experiment [2], 1170 nM; in experiment [3], 16.2 nM.

Take `CN1C(=O)C(NC(=O)c2cc(Oc3ccccc3)ccn2)CCc2ccc(N3CC4(CCOCC4)C3)cc21` (racemic) [Compound I-31, (±)-N-(1-Methyl-2-oxo-8-(7-oxa-2-azaspiro[3.5]nonan-2-yl)-2,3,4,5-tetrahydro-1H-benzo[b]azepin-3-yl)-4-phenoxypicolinamide]: the results for the IC50 in experiment [1], in experiment [2] and in experiment [3] were 54 nM, 1680 nM and 17.6 nM, respectively.

Regarding `CN1C(=O)[C@@H](NC(=O)n2cc(Cc3ccc(F)cc3)cn2)CCc2ccc(C#CC3(O)COC3)cc21` [Compound I-1, (S)-4-(4-fluorobenzyl)-N-(8-((3-hydroxyoxetan-3-yl)ethynyl)-1-methyl-2-oxo-2,3,4,5-tetrahydro-1H-benzo[b]azepin-3-yl)-1H-pyrazole-1-carboxamide], the results for the IC50 in experiment [1], in experiment [2] and in experiment [3] were 23.4 nM, 2.4 nM and 0.3 nM, respectively.

With `CN1C(=O)[C@@H](NC(=O)c2cc(Oc3ccccc3)ccn2)CCc2ccc(-c3ccc(C#CC(C)(C)O)nc3)cc21` [Compound I-2, (S)—N-(8-(6-(3-hydroxy-3-methylbut-1-yn-1-yl)pyridin-3-yl)-1-methyl-2-oxo-2,3,4,5-tetrahydro-1H-benzo[b]azepin-3-yl)-4-phenoxypicolinamide], the IC50 came out at 33.4 nM in experiment [1], 142 nM in experiment [2] and 2 nM in experiment [3].

Consider `CN1C(=O)[C@@H](NC(=O)c2n[nH]c(Cc3ccccc3)n2)CCc2ccc(C#CC(C)(C)O)cc21` [Compound I-10, (S)-5-Benzyl-N-(8-(3-hydroxy-3-methylbut-1-yn-1-yl)-1-methyl-2-oxo-2,3,4,5-tetrahydro-1H-benzo[b]azepin-3-yl)-1H-1,2,4-triazole-3-carboxamide], for which the figures for the IC50 in experiment [1], in experiment [2] and in experiment [3] were 39.2 nM, 37.8 nM and 1.7 nM, respectively.

As for `CN1C(=O)[C@@H](NC(=O)c2n[nH]c(Cc3ccccc3)n2)CCc2ccc(N3CC4(CCOCC4)C3)cc21` [Compound I-17, (S)-5-Benzyl-N-(1-methyl-2-oxo-8-(7-oxa-2-azaspiro[3.5]nonan-2-yl)-2,3,4,5-tetrahydro-1H-benzo[b]azepin-3-yl)-1H-1,2,4-triazole-3-carboxamide], the IC50 came to 36.6 nM in experiment [1], 229 nM in experiment [2] and 3.9 nM in experiment [3].

Consider `CN1C(=O)[C@@H](NC(=O)c2n[nH]c(Cc3ccccc3)n2)CCc2ccc(C#Cc3cccnc3)cc21` [Compound I-18, (S)-5-Benzyl-N-(1-methyl-2-oxo-8-(pyridin-3-ylethynyl)-2,3,4,5-tetrahydro-1H-benzo[b]azepin-3-yl)-1H-1,2,4-triazole-3-carboxamide], for which the IC50 in experiment [1] is 23.4 nM; in experiment [2] it was 5.9 nM; in experiment [3] it was 3.2 nM.

`CN1C(=O)[C@@H](NC(=O)c2n[nH]c(Cc3ccccc3)n2)CCc2ccc(C#CC(C)(C)C)cc21` [Compound I-21, (S)-5-Benzyl-N-(8-(3,3-dimethylbut-1-yn-1-yl)-1-methyl-2-oxo-2,3,4,5-tetrahydro-1H-benzo[b]azepin-3-yl)-1H-1,2,4-triazole-3-carboxamide]: the IC50 in experiment [1] is 62.4 nM; in experiment [2], 25.3 nM; in experiment [3] it was 13.4 nM.

As to `CN1C(=O)[C@@H](NC(=O)c2cc(Oc3ccccc3)ccn2)CCc2ccc(C#CC3(O)COC3)cc21` [Compound I-22, (S)—N-(8-((3-hydroxyoxetan-3-yl)ethynyl)-1-methyl-2-oxo-2,3,4,5-tetrahydro-1H-benzo[b]azepin-3-yl)-4-phenoxypicolinamide], the IC50 was determined as 34.2 nM in experiment [1], 8.2 nM in experiment [2] and 0.8 nM in experiment [3].

`CN1C(=O)[C@@H](NC(=O)c2ccn(Cc3ccccc3)n2)CCc2ccc(N3CC4(CCOCC4)C3)cc21` [Compound I-32, (S)-1-Benzyl-N-(1-methyl-2-oxo-8-(7-oxa-2-azaspiro[3.5]nonan-2-yl)-2,3,4,5-tetrahydro-1H-benzo[b]azepin-3-yl)-1H-pyrazole-3-carboxamide]: the figures for the IC50 in experiment [1], in experiment [2] and in experiment [3] were 38.8 nM, 182 nM and 2.7 nM, respectively.

With `CN1C(=O)[C@@H](NC(=O)c2ccn(Cc3ccccc3)n2)CCc2ccc(C#CC(C)(C)C)cc21` [Compound I-33, (S)-1-Benzyl-N-(8-(3,3-dimethylbut-1-yn-1-yl)-1-methyl-2-oxo-2,3,4,5-tetrahydro-1H-benzo[b]azepin-3-yl)-1H-pyrazole-3-carboxamide], the values for the IC50 in experiment [1], in experiment [2] and in experiment [3] were 54.6 nM, 30 nM and 7.6 nM, respectively.

Regarding `CN1C(=O)[C@@H](NC(=O)n2cc(Cc3ccc(F)cc3)cn2)CCc2ccc(C#CC3(O)CCOCC3)cc21` [Compound I-34, (S)-4-(4-Fluorobenzyl)-N-(8-((4-hydroxytetrahydro-2H-pyran-4-yl)ethynyl)-1-methyl-2-oxo-2,3,4,5-tetrahydro-1H-benzo[b]azepin-3-yl)-1H-pyrazole-1-carboxamide], the concentration for half-maximal inhibition (IC50) in experiment [1] was 26 nM; in experiment [2] it was 5.9 nM; in experiment [3], 0.4 nM.

`CC(C)(O)C#Cc1ccc2c(c1)NC(=O)[C@@H](NC(=O)c1cc(Oc3ccc(F)cc3)ccn1)CC2` [Compound I-35, (S)-4-(4-Fluorophenoxy)-N-(8-(3-hydroxy-3-methylbut-1-yn-1-yl)-2-oxo-2,3,4,5-tetrahydro-1H-benzo[b]azepin-3-yl)picolinamide]: the results for the IC50 in experiment [1], in experiment [2] and in experiment [3] were 73 nM, 1790 nM and 552 nM, respectively.

By IC50 is commonly meant the midpoint of a concentration-inhibition curve.

The values are drawn from US20210070735A1, “RIP1 INHIBITORY COMPOUNDS AND METHODS FOR MAKING AND USING THE SAME” (Rigel Pharmaceuticals, Inc., priority 2019, published 2021).
